Values of other authors in patent US9456982B2, “Solid formulations of niacin to counteract cold extremities” (BE-WARM LLC, priority 2014, dated 2016).

Details: therapeutic niacin doses; sometimes longer

## O=C(O)c1cccnc1 [niacin, pyridine-3-carboxylic acid]
  duration of SVFS flush: 15 to 30 min
